{"source": "paper PMC6105804", "about": "“In Vitro and In Vivo Evaluation of APX001A/APX001 and Other Gwt1 Inhibitors against Cryptococcus” (Antimicrobial Agents and Chemotherapy, 2018)", "key": {"C. neoformans strain H99 [1]": {"test_system": "C. neoformans strain H99", "assay": "Murine model of cryptococcal meningitis, APX001 alone and with FLC (no ABT)", "assay_type": "in vivo, Cryptococcus neoformans", "experimental": "The efficacies of APX001 and FLC were evaluated in a well-established mouse CM model ([34]). Since Cryptococcus infections can be hematogenously disseminated to other organs, the numbers of CFU in both lung and brain tissue were evaluated. Male CD-1 mice were infected with 5.9 × 10^4 CFU of C. neoformans strain H99 via lateral tail vein injection. Mice were assigned to four groups (n = 10), consisting of (i) treatment with APX001, (ii) treatment with APX001 plus FLC, (iii) treatment with FLC, or (iv) no treatment as a control. Treatment was initiated within 1 h after infection. APX001 was administered by oral gavage at a dose of 390 mg/kg thrice daily (TID), with each dose being administered roughly 8 h apart. […] FLC (2 mg/ml; Sagent Pharmaceuticals, Schaumburg, IL) was administered at a dose of 80 mg/kg/day intraperitoneally (i.p.).\nBrain and lung burdens in mice were measured at 7 days postinfection with C. neoformans H99. Male CD-1 mice were infected with 5.9 × 10^4 CFU of C. neoformans strain H99 via the lateral tail vein. Treatment was initiated at about 1 h postinfection and continued for 7 days. APX001 was administered by oral gavage at a dose of 390 mg/kg thrice daily, with each dose being administered roughly 8 h apart. FLC (2 mg/ml; Sagent Pharmaceuticals, Schaumburg, IL) was administered at a dose of 80 mg/kg/day i.p. once daily. Fungal burden data were log10 transformed and evaluated using Kruskal-Wallis tests with Dunn's multiple-comparison test for post hoc analysis (Prism software, v5; GraphPad Software, Inc., San Diego, CA). A P value of ≤0.05 was considered statistically significant (*, P ≤ 0.05; **, P ≤ 0.01; ***, P ≤ 0.001). The 95% confidence interval (CI) is presented.\n(§1) C. neoformans strain H99 was grown in yeast extract-peptone-dextrose broth at 30°C on a shaker (220 rpm) for 24 h, centrifuged (1,980 relative centrifugal force), and washed twice in phosphate-buffered saline (PBS), resuspended in PBS, and quantified by hemacytometric count. Male CD-1 mice were infected with ∼5 × 10^4 CFU per mouse via lateral tail vein injection of 100 μl. Mice were weighed, and treatment was begun within 1 h after infection. Treatments were administered daily for 7 days. Mice were weighed daily and observed for acute and chronic adverse symptoms. Mice were sacrificed on day 8, and the brain and left lung were homogenized and cultured for quantitative determination of the tissue burden (number of CFU per gram of tissue). Tissues were homogenized for 25 s in 1 ml phosphate-buffered saline using two 6.5-mm steel beads and a Mini-Beadbeater 16 apparatus (Biospec Products, Inc., Bartlesville, OK) and serially diluted in 10-fold steps. Aliquots (100 μl) of homogenate were plated and incubated for 3 to 7 days at 37°C. Fungal burden data were log10 transformed and evaluated using Kruskal-Wallis tests with Dunn's multiple-comparison test for post hoc analysis (Prism software, v5; GraphPad Software, Inc., San Diego, CA). A P value of ≤0.05 was considered statistically significant."}, "C. neoformans strain H99 [2]": {"test_system": "C. neoformans strain H99", "assay": "Murine cryptococcal meningitis model with ABT pretreatment (preliminary experiment)", "assay_type": "in vivo, Cryptococcus neoformans", "experimental": "In a preliminary experiment, the efficacies of APX001, APX2096, and APX2097 were evaluated in the disseminated model of CM (n = 5 mice/cohort). ABT at 100 mg/kg was administered orally to male CD-1 mice 2 h prior to APX compound administration. Mice were injected with 6.9 × 10^4 CFU of C. neoformans strain H99 per mouse via the lateral tail vein at time zero. Treatment with each prodrug was initiated at about 1 h postinfection by i.p. administration and continued daily for 7 days, with 100-mg/kg ABT being administered orally 2 h prior to each APX compound dose.\n(§2) ABT at 100 mg/kg was administered orally to male CD-1 mice at 2 h prior to each APX compound dose. Mice were injected with 6.9 × 10^4 CFU of C. neoformans strain H99 per mouse via the lateral tail vein at time zero. Treatment with the APX compound was initiated at about 1 h postinfection by i.p. administration and continued for 7 days, with 100-mg/kg ABT being administered orally 2 h prior to each APX compound dose. […] Fungal burden data were log10 transformed and evaluated using Kruskal-Wallis tests with Dunn's multiple-comparison test for post hoc analysis (Prism software, v5; GraphPad Software, Inc., San Diego, CA). A P value of ≤0.05 was considered statistically significant (*, P ≤ 0.05; **, P ≤ 0.01). The 95% confidence interval (CI) is presented.\nas §1"}, "[3]": {"assay": "Acute toxicity and survival observed in the CM model with ABT", "assay_type": "in vivo, mouse", "settings": "n = 5 mice/cohort; 7 days i.p. + ABT", "experimental": "as §2, §1"}, "[4]": {"from_the_text": "For pharmacokinetic and efficacy studies, the prodrugs APX001, APX2096, APX2097, and APX2104 (Amplyx Pharmaceuticals) were used. […] The prodrugs APX2096, APX2097, and APX2104 were formulated similarly to enable oral and i.p. dosing of compounds for pharmacokinetic and efficacy studies."}, "[5]": {"set-up": "method as in ref 11, 12 = [11]; 11. Hodges MR , Ople E , Shaw KJ , Mansbach RS , van Marle S , van Hoogdalem E , Kramer W , Wedel P 2017 Phase 1 study to assess safety, tolerability and pharmacokinetics of single and multiple oral d || [12]; 12. Hodges MR , Ople E , Shaw KJ , Mansbach RS , van Marle S , van Hoogdalem E , Wedel P , Kramer W 2017 First-in-human study to assess safety, tolerability and pharmacokinetics of APX001 administered", "settings": "cited from earlier work"}, "C. albicans": {"test_system": "C. albicans", "set-up": "method as in ref 23 = [23]; 23. Zhao Y , Lee M , Lee A , Paderu P , Park S , Perlin DS 2018 APX001 is effective against echinocandin and multi-drug resistant Candida isolates . Abstr 28th ECCMID , Madrid, Spain .", "settings": "after ABT administration, after 48 h; cited from earlier work"}, "[6]": {"settings": "APX001 390 mg/kg TID oral plus FLC 80 mg/kg/day i.p., 7 days"}, "[7]": {"settings": "monotherapy 7 days, APX001 390 mg/kg TID oral gavage, FLC 80 mg/kg/day i.p., male CD-1 mice"}, "[8]": {"settings": "80 mg/kg in the presence of ABT"}, "[9]": {"settings": "85 mg/kg QD i.p. + ABT 100 mg/kg p.o., 7 days"}}, "note": "Values joined by “and” are separate entries in the source; they are usually repeats but may differ in a detail not shown here. Identical values can stand only once."}
{"compound": "Nc1c(-c2cc(Cc3ccc(COc4ccccn4)cc3)no2)ccc[n+]1COP(=O)([O-])O", "note": "[APX001]", "values": [{"measurement": "reduction in brain fungal burden vs untreated control, combination of APX001 and FLC", "setting": "C. neoformans strain H99 [1]; [6]", "value": "3.52 log10 CFU/g and 3.51 log10 CFU/g"}, {"measurement": "reduction in lung fungal burden vs untreated control, combined therapy", "setting": "C. neoformans strain H99 [1]; [6]", "value": 1.84, "unit": "log10 CFU/g"}, {"measurement": "reduction in brain fungal burden vs untreated control", "setting": "C. neoformans strain H99 [1]; [7]", "value": 0.78, "unit": "log10 CFU/g"}, {"measurement": "reduction in lung fungal burden vs untreated control", "setting": "C. neoformans strain H99 [1]; [7]", "value": "1.50 log10 CFU/g and 1.5 log10 CFU/g"}, {"measurement": "reduction in lung fungal burden", "setting": "C. neoformans strain H99 [2]; 34 mg/kg QD i.p. + ABT 100 mg/kg p.o., 7 days", "value": "neither the 34-mg/kg nor the 85-mg/kg dose of APX001 achieved a statistically significant reduction"}, {"measurement": "reduction in brain fungal burden", "setting": "C. neoformans strain H99 [2]; [8]", "value": 0.85, "unit": "log10 CFU/g"}, {"measurement": "reduction in lung fungal burden", "setting": "C. neoformans strain H99 [2]; [8]", "value": 0.9, "unit": "log10 CFU/g"}, {"measurement": "reduction in brain fungal burden", "setting": "C. neoformans strain H99 [2]; [9]", "value": 0.85, "unit": "log10 CFU/g"}, {"measurement": "reduction in lung fungal burden", "setting": "C. neoformans strain H99 [2]; [9]", "value": "neither the 34-mg/kg nor the 85-mg/kg dose of APX001 achieved a statistically significant reduction"}, {"measurement": "final numbers of surviving mice", "setting": "[3]", "value": 5}, {"measurement": "solubility in water", "setting": "[4]", "value": "soluble in water"}, {"measurement": "bioavailability", "setting": "[5]; phase 1 clinical trials", "value": "> 90", "unit": "%"}, {"measurement": "half-life in humans", "setting": "[5]; phase 1 studies in healthy volunteers", "value": 60, "unit": "h"}, {"measurement": "reduction of C. albicans kidney burdens", "setting": "C. albicans", "value": "6.0 ± 0.1", "unit": "log10 CFU/g kidney tissue"}]}
